ChEMBL document CHEMBL5338710, “Discovery of dearomatized isoprenylated acylphloroglucinols with colon tumor suppressive activities in mice via inhibiting NFκB-FAT1-PDCD4 signaling activation” (Eur J Med Chem, 2022)
Calls of active or inactive are those of the source. The calls are words filed in the database; no cut-off is given here.

What was measured:
HCT-116 [1] = assay: Antitumor activity against human HCT-116 cells xenografted in nude mouse assessed as decrease in tumor volume at 25 mg/kg, iv measured upto 23 days in presence of oxaliplatin; type: functional, organism-based; settings: time <= 23.0 day
HCT-116 [2] = assay: Antitumor activity against human HCT-116 cells xenografted in nude mouse assessed as decrease in tumor weight at 25 mg/kg, iv measured upto 23 days in presence of oxaliplatin; type: functional, organism-based; settings: time <= 23.0 day
HCT-116 [3] = assay: Antitumor activity against human HCT-116 cells xenografted in nude mouse assessed as decrease in tumor volume at 3 to 4 mg/kg, iv measured for 23 days in presence of oxaliplatin; type: functional, organism-based; settings: dose 3-4 mg/kg, time 23.0 day
HCT-116 [4] = assay: Antitumor activity against human HCT-116 cells xenografted in nude mouse assessed as reduction in tumor weight at 3 to 4 mg/kg, iv measured for 23 days in presence of oxaliplatin; type: functional, organism-based; settings: dose 3-4 mg/kg, time 23.0 day
HCT-116 [5] = assay: Antiproliferative activity against human HCT-116 cells assessed as reduction in cell viability at 5 uM measured after 48 hrs by MTT assay; type: functional, cell-based
HCT-116 [6] = assay: Antiproliferative activity against human HCT-116 cells assessed as reduction in cell viability measured after 48 hrs by MTT assay; type: functional, cell-based; settings: HCT-116, 48 h
[7] = Antiproliferative activity against human PBMC cells assessed as reduction in cell viability measured after 48 hrs by MTT assay; type: toxicity, cell-based
SW480 = assay: Antiproliferative activity against human SW480 cells assessed as reduction in cell viability measured after 48 hrs by MTT assay; type: functional, cell-based; settings: SW480, 48 h
HT-29 = assay: Antiproliferative activity against human HT-29 cells assessed as reduction in cell viability measured after 48 hrs by MTT assay; type: functional, cell-based; settings: HT-29, 48 h
[8] = Antiproliferative activity against human HS27 cells assessed as reduction in cell viability measured after 48 hrs by MTT assay; type: toxicity, cell-based
HCT-116 [9] = assay: Antiproliferative activity against human HCT-116 cells assessed as reduction in cell viability measured after 48 hrs by BrdU staining based assay; type: functional; settings: HCT-116, 48 h
HCT-116 [10] = assay: Induction of cell cycle arrest in human HCT-116 cells assessed as accumulation of cells at G2 phase at 2.5 to 5 uM measured after 48 hrs by PI staining based flow cytometry method; type: functional; settings: dose 2.5-5 µM
HCT-116 [11] = assay: Induction of cell cycle arrest in human HCT-116 cells assessed as upregulation of p53 mRNA expression at 2.5 to 5 uM measured after 24 hrs by qRT-PCR analysis; type: functional, cell-based; settings: dose 2.5-5 µM
HCT-116 [12] = assay: Induction of cell cycle arrest in human HCT-116 cells assessed as upregulation of p21 mRNA expression at 2.5 to 5 uM measured after 24 hrs by qRT-PCR analysis; type: functional, cell-based; settings: dose 2.5-5 µM
HCT-116 [13] = assay: Induction of cell cycle arrest in human HCT-116 cells assessed as upregulation of 14-3-3sigma mRNA expression at 2.5 to 5 uM measured after 24 hrs by qRT-PCR analysis; type: functional, cell-based; settings: dose 2.5-5 µM
HCT-116 [14] = assay: Induction of G2/M phase cell cycle arrest in human HCT-116 cells assessed as decrease in cyclin A2 mRNA expression at 2.5 to 5 uM measured after 24 hrs by qRT-PCR analysis; type: functional, cell-based; settings: dose 2.5-5 µM
HCT-116 [15] = assay: Induction of cell cycle arrest in human HCT-116 cells assessed as upregulation of p53 protein expression at 2.5 to 5 uM measured for 48 hrs by Western blot analysis; type: functional, cell-based; settings: dose 2.5-5 µM
HCT-116 [16] = assay: Induction of G2/M phase cell cycle arrest in human HCT-116 cells assessed as decrease in cyclin A2 protein expression at 2.5 to 5 uM measured for 48 hrs by Western blot analysis; type: functional, cell-based; settings: dose 2.5-5 µM
HCT-116 [17] = assay: Induction of G2/M phase cell cycle arrest in human HCT-116 cells assessed as decrease in CDK1 protein expression at 2.5 to 5 uM measured for 48 hrs by Western blot analysis; type: functional, cell-based; settings: dose 2.5-5 µM
HCT-116 [18] = assay: Induction of apoptosis in human HCT-116 cells at 5 uM measured for 48 hrs by annexin V/PI staining based analysis; type: functional, cell-based
HCT-116 [19] = assay: Induction of apoptosis in human HCT-116 cells assessed as increase in Bax mRNA expression at 5 uM measured for 48 hrs by qRT-PCR analysis; type: functional, cell-based
HCT-116 [20] = assay: Induction of apoptosis in human HCT-116 cells assessed as decrease in Bcl2 mRNA expression at 5 uM measured for 48 hrs by qRT-PCR analysis; type: functional, cell-based
HCT-116 [21] = assay: Upregulation of SERPINE1 mRNA expression in human HCT-116 cells at 2.5 to 5 uM measured after 24 hrs by qRT-PCR analysis; type: functional, cell-based; settings: dose 2.5-5 µM
HCT-116 [22] = assay: Downregulation of FAT1 mRNA expression in human HCT-116 cells at 2.5 to 5 uM measured after 24 hrs by qRT-PCR analysis; type: functional, cell-based; settings: dose 2.5-5 µM
HCT-116 [23] = assay: Downregulation of FAT1 protein expression in human HCT-116 cells measured at 24 to 48 hrs by Western blot analysis; type: functional, cell-based; settings: dose 0.5-5 µM, time 24-48 hrs
[24] = target: T1, Nuclear factor NF-kappa-B complex (Homo sapiens) (UniProt Q00653+P19838+Q04206); assay: Inhibition of TNFalpha induced-NFkB phosphorylation in human HCT-116 cells at 1 to 5 uM pretreated for 24 hrs followed by TNFalpha induction and measured after 24 hrs by Western blot analysis; type: cell-based; settings: dose 1-5 µM, time 48.0 hrs
T1 sequence (P19838 whole entry, looked up): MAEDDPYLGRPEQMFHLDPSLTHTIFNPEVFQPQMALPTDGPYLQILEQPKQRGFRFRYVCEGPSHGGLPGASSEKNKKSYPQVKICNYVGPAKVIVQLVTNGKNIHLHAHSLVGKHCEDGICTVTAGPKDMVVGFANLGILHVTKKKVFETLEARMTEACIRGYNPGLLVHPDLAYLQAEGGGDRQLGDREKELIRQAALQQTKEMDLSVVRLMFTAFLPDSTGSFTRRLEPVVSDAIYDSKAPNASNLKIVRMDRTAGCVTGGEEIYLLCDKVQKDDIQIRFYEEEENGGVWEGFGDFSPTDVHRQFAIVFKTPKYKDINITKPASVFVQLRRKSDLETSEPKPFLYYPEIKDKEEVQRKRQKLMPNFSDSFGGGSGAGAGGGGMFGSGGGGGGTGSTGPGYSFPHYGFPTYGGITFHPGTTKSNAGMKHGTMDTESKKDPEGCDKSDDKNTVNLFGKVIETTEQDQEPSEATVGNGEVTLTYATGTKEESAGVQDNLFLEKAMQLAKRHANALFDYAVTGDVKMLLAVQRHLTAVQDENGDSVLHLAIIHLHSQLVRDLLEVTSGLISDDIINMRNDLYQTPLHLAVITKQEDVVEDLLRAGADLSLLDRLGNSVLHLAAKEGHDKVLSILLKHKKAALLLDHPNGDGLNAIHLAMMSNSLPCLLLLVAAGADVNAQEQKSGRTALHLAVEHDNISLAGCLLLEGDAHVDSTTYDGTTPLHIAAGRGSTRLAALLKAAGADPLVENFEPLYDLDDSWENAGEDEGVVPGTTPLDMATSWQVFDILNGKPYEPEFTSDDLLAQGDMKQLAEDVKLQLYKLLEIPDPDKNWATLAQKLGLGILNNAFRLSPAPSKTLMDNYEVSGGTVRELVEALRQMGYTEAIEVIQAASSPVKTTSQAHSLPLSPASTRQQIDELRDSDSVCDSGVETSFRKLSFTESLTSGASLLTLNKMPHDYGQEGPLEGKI
T1 sequence (Q00653 whole entry, looked up): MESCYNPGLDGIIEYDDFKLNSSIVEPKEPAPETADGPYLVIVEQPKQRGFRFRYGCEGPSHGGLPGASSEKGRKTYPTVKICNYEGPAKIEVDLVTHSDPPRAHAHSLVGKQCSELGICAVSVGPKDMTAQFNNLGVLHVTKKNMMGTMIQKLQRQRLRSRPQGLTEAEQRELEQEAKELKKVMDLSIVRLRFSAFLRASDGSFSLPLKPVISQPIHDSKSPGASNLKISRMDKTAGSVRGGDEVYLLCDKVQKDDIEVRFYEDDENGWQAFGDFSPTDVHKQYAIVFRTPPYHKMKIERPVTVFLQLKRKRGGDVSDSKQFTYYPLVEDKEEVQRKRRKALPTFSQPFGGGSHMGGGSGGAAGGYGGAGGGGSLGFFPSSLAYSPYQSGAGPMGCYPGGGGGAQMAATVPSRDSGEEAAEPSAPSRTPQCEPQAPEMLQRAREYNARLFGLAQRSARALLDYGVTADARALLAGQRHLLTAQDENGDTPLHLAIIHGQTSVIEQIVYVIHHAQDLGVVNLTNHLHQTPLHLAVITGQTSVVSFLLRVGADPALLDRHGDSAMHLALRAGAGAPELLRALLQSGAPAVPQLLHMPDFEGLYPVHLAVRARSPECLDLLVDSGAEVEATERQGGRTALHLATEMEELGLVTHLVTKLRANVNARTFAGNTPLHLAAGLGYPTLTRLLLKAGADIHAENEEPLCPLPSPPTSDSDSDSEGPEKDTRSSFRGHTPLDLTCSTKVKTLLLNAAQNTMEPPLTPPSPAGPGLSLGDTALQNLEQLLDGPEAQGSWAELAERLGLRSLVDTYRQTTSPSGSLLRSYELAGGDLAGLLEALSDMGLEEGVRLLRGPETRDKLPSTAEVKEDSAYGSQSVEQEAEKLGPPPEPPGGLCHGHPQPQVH
T1 sequence (Q04206 whole entry, looked up): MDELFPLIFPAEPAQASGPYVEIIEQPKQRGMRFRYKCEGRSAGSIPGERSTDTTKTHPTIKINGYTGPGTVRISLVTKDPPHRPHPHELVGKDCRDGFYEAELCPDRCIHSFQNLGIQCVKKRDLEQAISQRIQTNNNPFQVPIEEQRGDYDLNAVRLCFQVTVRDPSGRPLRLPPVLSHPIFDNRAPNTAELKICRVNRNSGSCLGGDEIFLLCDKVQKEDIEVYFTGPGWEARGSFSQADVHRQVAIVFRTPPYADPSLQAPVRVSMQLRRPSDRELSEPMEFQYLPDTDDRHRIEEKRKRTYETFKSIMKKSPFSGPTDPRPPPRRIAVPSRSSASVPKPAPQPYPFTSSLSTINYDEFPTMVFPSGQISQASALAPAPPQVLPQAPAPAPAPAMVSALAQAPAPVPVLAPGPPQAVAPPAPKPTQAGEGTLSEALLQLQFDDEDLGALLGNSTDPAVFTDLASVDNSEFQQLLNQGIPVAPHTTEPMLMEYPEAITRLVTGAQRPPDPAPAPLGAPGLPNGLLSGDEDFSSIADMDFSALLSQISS

[25] = target: T1, Nuclear factor NF-kappa-B complex (Homo sapiens); assay: Inhibition of TNFalpha induced-NFkB phosphorylation in human HCT-116 cells at 5 uM pretreated for 24 hrs followed by TNFalpha induction and measured after 24 hrs by Western blot analysis; type: cell-based; settings: time 48.0 hrs
HCT-116 [26] = assay: Downregulation of PDCD4 mRNA expression in human HCT-116 cells by qRT-PCR analysis; type: functional, cell-based; settings: dose 1-5 µM
[27] = Toxicity in nude mouse xenografted with human HCT-116 cells assessed as effect on body weight at 3 to 4 mg/kg, iv measured for 23 days; type: organism-based; settings: in vivo, 552 h, dose 3-4 mg/kg, time 23 day
HCT-116 [28] = assay: Antitumor activity against human HCT-116 cells xenografted in iv dosed nude mouse assessed as decrease in tumor volume measured for 23 days; type: functional, organism-based; settings: dose 3-4 mg/kg, time 23.0 day
HCT-116 [29] = assay: Antitumor activity against human HCT-116 cells xenografted in nude mouse assessed as decrease in tumor volume at 4 mg/kg, iv measured at day 9; type: functional, organism-based; settings: time 9.0 day
HCT-116 [30] = assay: Antitumor activity against human HCT-116 cells xenografted in nude mouse assessed as decrease in tumor volume at 3 to 4 mg/kg, iv measured for 23 days; type: functional, organism-based; settings: dose 3-4 mg/kg, time 23.0 day
HCT-116 [31] = assay: Antitumor activity against human HCT-116 cells xenografted in nude mouse assessed as reduction in tumor weight at 3 to 4 mg/kg, iv measured for 23 days; type: functional, organism-based; settings: dose 3-4 mg/kg, time 23.0 day
HCT-116 [32] = assay: Antitumor activity against human HCT-116 cells xenografted in iv dosed nude mouse model assessed as increase in apoptosis in tumor tissue measured for 23 days by TUNEL staining based analysis; type: functional, organism-based; settings: dose 3-4 mg/kg, time 23.0 day
HCT-116 [33] = assay: Antitumor activity against human HCT-116 cells xenografted in nude mouse model assessed as reduction in FAT1 expression in tumor tissue at 3 to 4 mg/kg, iv administered for 23 days by IHC analysis; type: functional, organism-based; settings: dose 3-4 mg/kg, time 23.0 day
HCT-116 [34] = assay: Antitumor activity against human HCT-116 cells xenografted in nude mouse model assessed as reduction in Ki67 expression in tumor tissue at 3 to 4 mg/kg, iv administered for 23 days by […] analysis; type: functional, organism-based; settings: dose 3-4 mg/kg, time 23.0 day
HCT-116 [35] = assay: Antitumor activity against human HCT-116 cells xenografted in nude mouse model assessed as increase in p53 protein expression in tumor tissue at 3 to 3.5 mg/kg, iv administered for 23 days by Western blot analysis; type: functional, organism-based; settings: dose 3-3.5 mg/kg, time 23.0 day
[36] = Toxicity in nude mouse xenografted with human HCT-116 cells assessed as body weight loss at 3 to 4 mg/kg, iv measured for 23 days; type: organism-based; settings: in vivo, 552 h, dose 3-4 mg/kg, time 23 day
[37] = Toxicity in nude mouse xenografted with human HCT-116 cells assessed as change in plasma CK level at 3 to 4 mg/kg, iv measured for 23 days; type: organism-based; settings: in vivo, 552 h, dose 3-4 mg/kg, time 23 day
[38] = Toxicity in nude mouse xenografted with human HCT-116 cells assessed as change in plasma LDH level at 3 to 4 mg/kg, iv measured for 23 days; type: organism-based; settings: in vivo, 552 h, dose 3-4 mg/kg, time 23 day
[39] = Toxicity in nude mouse xenografted with human HCT-116 cells assessed as change in plasma AST level at 3 to 4 mg/kg, iv measured for 23 days; type: organism-based; settings: in vivo, 552 h, dose 3-4 mg/kg, time 23 day
[40] = Toxicity in nude mouse xenografted with human HCT-116 cells assessed as change in plasma ALT level at 3 to 4 mg/kg, iv measured for 23 days; type: organism-based; settings: in vivo, 552 h, dose 3-4 mg/kg, time 23 day

SMILES: O=c1[nH]cc(F)c(=O)[nH]1
- Activity (HCT-116 [1]): Active
- Activity (HCT-116 [2]): Active
- Activity (HCT-116 [3]): Active
- Activity (HCT-116 [4]): Active

SMILES: C=C(C)[C@H]1CC[C@@](C)(O)[C@@H](C2=C(O)[C@](C)(CC=C(C)C)C(=O)C(C(=O)C(C)C)=C2O)C1
- Activity (HCT-116 [5]): Active
- IC50 (HCT-116 [6]): 2.63 µM
- IC50 at 48 h [7]: 14.4 µM

SMILES: C=C(C)[C@H]1CC[C@@](C)(O)[C@@H](C2=C(O)[C@@](C)(CC=C(C)C)C(=O)C(C(=O)C(C)C)=C2O)C1
- Activity (HCT-116 [5]): Active
- IC50 (HCT-116 [6]): 4.37 µM
- IC50 at 48 h [7]: > 100 µM
- IC50 (SW480): 22.2 µM
- IC50 (HT-29): 11.6 µM
- IC50 at 48 h [8]: > 100 µM
- IC50 (HCT-116 [9]): 1.53 µM
- Activity (HCT-116 [10]): Active
- Activity (HCT-116 [11]): Active
- Activity (HCT-116 [12]): Active
- Activity (HCT-116 [13]): Active
- Activity (HCT-116 [14]): Active
- Activity (HCT-116 [15]): Active
- Activity (HCT-116 [16]): Active
- Activity (HCT-116 [17]): Active
- Activity (HCT-116 [18]): Active
- Activity (HCT-116 [19]): Active
- Activity (HCT-116 [20]): Active
- Activity (HCT-116 [21]): Active
- Activity (HCT-116 [22]): Active
- Activity (HCT-116 [23]): Dose-Dependent Effect
- inhibition [24]: inactive
- inhibition [25]: Active
- Activity (HCT-116 [26]): Dose-Dependent Effect
- Activity [27]: Non-Toxic
- Activity (HCT-116 [28]): Dose-Dependent Effect
- Activity (HCT-116 [29]): Active
- Activity (HCT-116 [30]): Active
- Activity (HCT-116 [31]): Active
- Activity (HCT-116 [32]): Dose-Dependent Effect
- Activity (HCT-116 [33]): Active
- Activity (HCT-116 [34]): Active
- Activity (HCT-116 [35]): Active
- Activity [36]: Non-Toxic
- Activity [37]: Non-Toxic
- Activity [38]: Non-Toxic
- Activity [39]: Non-Toxic
- Activity [40]: Non-Toxic

SMILES: C=C(C)[C@H]1CC[C@@](C)(O)[C@@H](C2=C(O)[C@@](C)(CC=C(C)C)C(=O)C(C(=O)C(C)CC)=C2O)C1 (some centres not stated)
- Activity (HCT-116 [5]): Active
- IC50 (HCT-116 [6]): 2.32 µM
- IC50 at 48 h [7]: 19.6 µM

SMILES: C=C(C)[C@@H]1CC[C@@](C)(O)[C@H]1CC1=C(O)C(CC=C(C)C)(CC=C(C)C)C(=O)C(C(=O)C(C)CC)=C1O (some centres not stated)
- Activity (HCT-116 [5]): Active
- IC50 (HCT-116 [6]): 2.46 µM
- IC50 at 48 h [7]: 10 µM

SMILES: C=C(C)[C@H]1CC[C@@](C)(O)[C@@H](C2=C(O)C(CC=C(C)C)(CC=C(C)C)C(=O)C(C(=O)C(C)C)=C2O)C1
- inhibition [24]: inactive
